Test results as given in patent US4719235A, “Methods and compositions for treating viral infection” (Kern; Gerald N., priority 1985, dated 1988).
Like-named read-outs stand apart in the source and are kept apart here.

What was measured:
HSV-II = assay: Duration of effect of pretreatment of MA-104 cells prior to exposure to HSV-II; assay type: cell-based, Herpes Simplex Type 2; settings: 0.02 mg/ml; for inhibition at 20 µg/mL: Human alphaherpesvirus 2, MA104, read-out: % Reduction In Infectivity
Description: MA-104 cell monolayers were washed twice with Earle's basal salt solution (EBSS) and a 0.02 mg/ml solution of docusate sodium was added to each culture dish. The culture dishes were incubated at 37° C. for one hour and the docusate sodium solutions poured off. The monolayers were then washed twice with EBSS and at appropriate time intervals infected with HSV-II. After the addition of overlay agar, the cultures were incubated at 37° C. for 3 days, stained with crystal voilet, and the plaques counted. Control cultures were treated in a similar manner except for exposure to docusate sodium.

HSV-2 [1] = assay: Titration of HSV-2 after contact with serum-free docusate sodium solutions (plaque assay on MA-104 cells); assay type: cell-based, Herpes Simplex Type 2
Coxsackievirus B-5 [2] = assay: Titration of Coxsackievirus B-5 after contact with docusate sodium solutions; assay type: cell-based; settings: 0.2 mg/ml
[3] = system: primary fibroblasts from human foreskin; assay: Cytotoxicity in solutions containing serum, foreskin fibroblasts; assay type: cell-based; parameters: key to Foreskin (Cytotoxic effect): 0: Cells have normal morphology; 4+: >90% of cells showed CTE.; ±c: less than 10% of cells showed CTE; settings: 0.01 mg/ml, 2% fetal calf serum, 24 hours, 37° C.
Description: (§1) The cells were grown to confluency in 60×15 mm dishes. The cell monolayers were washed free of growth medium and 5 ml of serum-less growth medium containing docusate sodium at various concentrations was added. The curtures were incubated 24 hours at 37° C. and the cells then examined microscopically for cytotoxic effects (CTE). Controls were done in the same manner except that they were not exposed to docusate sodium.
(§2) The same procedure that was used for Example 17 was used for this Example except that the medium used for growing the cells contained 2% by volume fetal calf serum.

[4] = as above; assay type: cell-based, human; parameters: key to Foreskin (Cytotoxic effect): 0: Cells have normal morphology; 4+: >90% of cells showed CTE.; ±c: less than 10% of cells showed CTE; settings: human, foreskin fibroblasts, 2% fetal calf serum, 37° C., read-out: Foreskin (Cytotoxic effect)
Description: as §1, §2

Influenza A virus [5] = assay: Pretreatment of MDCK cells prior to exposure to Influenza A virus; settings: 0.1 mg/ml
Description: (§3) Virus infectivity was determined by cytopathic effects (CPE).
The same procedure was used for this example as was used for Example 24 except that MDCK cells were substituted for HeLa cells and Influenza A virus was substituted for Respiratory Syncytial Virus. Two experiments were run.

MA-104 = assay: Cytotoxicity in solutions free of serum, MA-104; assay type: cell-based, monkey; parameters: key to MA-104 (toxicity): 0: Cells had normal morphology; 4+: >90% of cells showed CTE; settings: 24 hours, 37° C.
Description: (§4) The cell lines used to evaluate cytotoxicity of docusate sodium were MA-104 derived from monkey kidneys, HeLa derived from human uterine carcinoma and primary fibroblasts from human foreskin. The cells were grown to confluency in 60×15 mm dishes. The cell monolayers were washed free of growth medium and 5 ml of serum-less growth medium containing docusate sodium at various concentrations was added. The curtures were incubated 24 hours at 37° C. and the cells then examined microscopically for cytotoxic effects (CTE). Controls were done in the same manner except that they were not exposed to docusate sodium.

[6] = Cytotoxicity in solutions free of serum, MA-104; assay type: cell-based, monkey; parameters: key to MA-104 (toxicity): 0: Cells had normal morphology; 4+: >90% of cells showed CTE; settings: monkey, ma-104 cells, 0.2 mg/ml, 37° C., read-out: MA-104 (toxicity)
Description: as §4

Rotavirus strain SA-11 = assay: Titration of Rotavirus strain SA-11 after contact with docusate sodium solutions; assay type: cell-based; settings: for plaque forming units: 0.2 mg/ml; for pfu/ml: 1 mg/ml
[7] = system: Respiratory Syncytial Virus; assay: Pretreatment of HeLa cells prior to exposure to Respiratory Syncytial Virus; assay type: cell-based
Description: The same procedure was used for this example as was used for Example 21 except that HeLa cells were substituted for MA-104 cells, the docusate sodium solution contained 0.1 mg/ml of docusate sodium, and Respiratory Syncytial Virus was substantial for Rotavirus. Three experiments were run.
as §3

HSV-2 [8] = assay: Titration of HSV-2 after contact with docusate sodium solutions containing 10% fetal calf serum; assay type: cell-based, Herpes Simplex Type 2
Rotavirus = assay: microbe, parasite or virus in culture; assay type: cell-based; settings: MA104, 0.25 h, pretreatment 15 minutes, read-out: % decrease in pfu
Adenovirus = assay: Titration of Adenovirus after contact with docusate sodium solutions (HeLa cells); assay type: cell-based; settings: 0.2 mg/ml
[9] = system: Respiratory syncytial virus (RSV); assay: Inactivation of Respiratory Syncytial Virus (CPE on HeLa cells); assay type: cell-based
Influenza A virus [10] = assay: Inactivation of Influenza A virus (CPE on MDCK cells); assay type: cell-based
Coxsackievirus B-5 [11] = assay: Pretreatment of MA-104 cells prior to exposure to Coxsackievirus B-5; assay type: cell-based
[12] = Cytotoxicity in solutions containing serum, HeLa; assay type: cell-based, human; parameters: key to HeLa (Cytotoxic effect): 0: Cells have normal morphology; 4+: >90% of cells showed CTE.; ±c: less than 10% of cells showed CTE; settings: human, hela cells, 2% fetal calf serum, 37° C., read-out: HeLa (Cytotoxic effect)
Description: as §1, §2

HeLa [13] = assay: Cytotoxicity in solutions containing serum, HeLa; assay type: cell-based, human; parameters: key to HeLa (Cytotoxic effect): 0: Cells have normal morphology; 4+: >90% of cells showed CTE.; ±c: less than 10% of cells showed CTE; settings: 0.02 mg/ml, 2% fetal calf serum, 24 hours, 37° C.
Description: as §1, §2

[14] = Cytotoxicity in solutions free of serum, selected cell lines (overall conclusion); assay type: cell-based; settings: serum-free medium, read-out: concentration toxic to the cells
Description: as §4

[15] = Cytotoxicity in solutions free of serum, HeLa; assay type: cell-based, human; parameters: key to HeLa (toxicity): 0: Cells had normal morphology; 4+: >90% of cells showed CTE; settings: human, hela cells, 0.2 mg/ml, 37° C., read-out: HeLa (toxicity)
Description: as §4

HeLa [16] = assay: Cytotoxicity in solutions free of serum, HeLa; assay type: cell-based, human; parameters: key to HeLa (toxicity): 0: Cells had normal morphology; 4+: >90% of cells showed CTE; settings: 24 hours, 37° C.
Description: as §4

## CCCCC(CC)COC(=O)CC(C(=O)OCC(CC)CCCC)S(=O)(=O)O (stereo not shown) [docusate sodium, 1,4-bis(2-ethylhexyl)sodium sulfosuccinate]
HSV-II; infection 0 hours after exposure (control 270,000)
  pfu/ml: 53,000 pfu/ml
HSV-II; infection 2 hours after exposure (control 30,000)
  pfu/ml: 14,000 pfu/ml
HSV-II; infection 24 hours after exposure (control 69,000)
  pfu/ml: 69,000 pfu/ml
HSV-II; infection 72 hours after exposure (control 69,000)
  pfu/ml: 58,000 pfu/ml
HSV-II; one hour pretreatment
  duration of anti-herpes effect of pretreatment (conclusion): transitory
HSV-II; infection 0 hours after exposure
  inhibition at 20 µg/mL: 81%
HSV-II; infection 2 hours after exposure
  inhibition at 20 µg/mL: 54%
HSV-II; infection 24 hours after exposure
  inhibition at 20 µg/mL: 0%
HSV-II; infection 72 hours after exposure
  inhibition at 20 µg/mL: 16%
HSV-2 [1]; Human alphaherpesvirus 2, MA104, 0.25 h, 0.01 mg/ml, 15 min, 37° C., read-out: % Inactivation of HSV-2
  killing at 10 µg/mL: 19%
HSV-2 [1]; Human alphaherpesvirus 2, MA104, 0.25 h, 0.02 mg/ml, 15 min, 37° C., read-out: % Inactivation of HSV-2
  killing at 20 µg/mL: 70%
HSV-2 [1]; Human alphaherpesvirus 2, MA104, 0.25 h, 0.03 mg/ml, 15 min, 37° C., read-out: % Inactivation of HSV-2
  killing at 30 µg/mL: 97%
HSV-2 [1]; Human alphaherpesvirus 2, MA104, 0.25 h, 0.04 mg/ml, 15 min, 37° C., read-out: % Inactivation of HSV-2
  killing at 40 µg/mL: 100%
HSV-2 [1]; Human alphaherpesvirus 2, MA104, 0.25 h, 0.05 mg/ml, 15 min, 37° C., read-out: % Inactivation of HSV-2
  killing at 50 µg/mL: 100%
HSV-2 [1]; Human alphaherpesvirus 2, MA104, 0.25 h, 0.1 mg/ml, 15 min, 37° C., read-out: % Inactivation of HSV-2
  killing at 100 µg/mL: 100%
HSV-2 [1]; Human alphaherpesvirus 2, MA104, 0.25 h, 0.2 mg/ml, 15 min, 37° C., read-out: % Inactivation of HSV-2
  killing at 200 µg/mL: 100%
HSV-2 [1]; concentrations as low as 0.02 mg/ml
  inactivation of HSV-2 (conclusion): effectively inactivates HSV-2
Coxsackievirus B-5 [2]
  inactivation of Coxsackievirus B-5 (conclusion): did not inactivate Coxsackievirus B-5
Coxsackievirus B-5 [2]; exposure time 0 minutes (control 30,000)
  pfu/ml: 12,500 pfu/ml
Coxsackievirus B-5 [2]; exposure time 15 minutes
  pfu/ml: 23,000 pfu/ml
Coxsackievirus B-5 [2]; exposure time 60 minutes (control 25,500)
  pfu/ml: 30,000 pfu/ml
[3]
  Foreskin (Cytotoxic effect): 0
[4]; 0.02 mg/ml
  cytotoxicity at 24 h: < 10%
[4]; 0.03 mg/ml
  cytotoxicity at 24 h: > 90%
[4]; 0.04 mg/ml
  cytotoxicity at 24 h: > 90%
Influenza A virus [5]; experiment 1, virus dilution 10^-1 (control +)
  Presence of CPE: -
Influenza A virus [5]; experiment 1, virus dilution 10^-2 (control +)
  Presence of CPE: -
Influenza A virus [5]; experiment 1, virus dilution 10^-3 (control -)
  Presence of CPE: -
Influenza A virus [5]; experiment 1, virus dilution 10^-4 (control -)
  Presence of CPE: -
Influenza A virus [5]; experiment 2, virus dilution 10^-2 (control +)
  Presence of CPE: -
Influenza A virus [5]; experiment 2, virus dilution 10^-3 (control -)
  Presence of CPE: -
Influenza A virus [5]; experiment 2, virus dilution 10^-4 (control -)
  Presence of CPE: -
MA-104; 0.01 mg/ml
  MA-104 (toxicity): 0
MA-104; 0.05 mg/ml
  MA-104 (toxicity): 4+ (>90% of cells showed CTE.)
MA-104; 0.1 mg/ml
  MA-104 (toxicity): 4+ (>90% of cells showed CTE.)
[6]
  cytotoxicity at 24 h: > 90%
Rotavirus strain SA-11; exposure time 0 minutes (control 17,000)
  plaque forming units: 16,000 pfu/ml
Rotavirus strain SA-11; exposure time 15 minutes
  plaque forming units: 19,000 pfu/ml
Rotavirus strain SA-11; exposure time 60 minutes (control 13,000)
  plaque forming units: 27,000 pfu/ml
Rotavirus strain SA-11; exposure time 0 minutes (control 46,500)
  pfu/ml: 45,000 pfu/ml
Rotavirus strain SA-11; exposure time 60 minutes (control 49,000)
  pfu/ml: 51,000 pfu/ml
Rotavirus strain SA-11; 0.2 and 1 mg/ml
  inactivation of Rotavirus SA-11 (conclusion): did not inactivate Rotavirus SA-11
[7]
  Presence of CPE: - and +
  protection of HeLa cells against RSV infection (conclusion): confers partial protection on HeLa cells against RSV infection
HSV-2 [8]; 10% fetal calf serum vs serum absent
  concentration required for a given percentage of HSV-2 inactivation (conclusion): higher concentrations of docusate sodium were required
HSV-2 [8]; Human alphaherpesvirus 2, 0.25 h, 0.01 mg/ml, 10% fetal calf serum, 15 min, 37° C., read-out: % Inactivation of HSV-2
  killing at 10 µg/mL: 10%
HSV-2 [8]; Human alphaherpesvirus 2, 0.25 h, 0.1 mg/ml, 10% fetal calf serum, 15 min, 37° C., read-out: % Inactivation of HSV-2
  killing at 100 µg/mL: 10%
HSV-2 [8]; Human alphaherpesvirus 2, 0.25 h, 0.2 mg/ml, 10% fetal calf serum, 15 min, 37° C., read-out: % Inactivation of HSV-2
  killing at 200 µg/mL: 95%
Rotavirus; 0.04 mg/ml
  inhibition at 40 µg/mL: 10%
Rotavirus; 0.05 mg/ml
  inhibition at 50 µg/mL: 70%
Adenovirus; contact time 60 minutes
  effect on Adenovirus replication (conclusion): did not have a significant effect on Adenovirus replication
Adenovirus; exposure time 60 minutes (control 180,000)
  pfu/ml: 150,000 pfu/ml
Adenovirus; unidentified adenovirus, HeLa, 1 h, exposure time 60 minutes, read-out: % Inactivation
  killing at 200 µg/mL: 17%
[9]
  Presence of CPE: -
  inactivation of RSV (conclusion): RSV was inactivated
Influenza A virus [10]
  Presence of CPE: -
  inactivation of Influenza A virus (conclusion): readily inactivated
Coxsackievirus B-5 [11]; 0.02 mg/ml, pretreatment
  effect on plaque formation (infectivity) (conclusion): no effect on plaque formation (infectivity)
Coxsackievirus B-5 [11]; .02 mg/ml, pretreatment 15 minutes (control 1,000,000)
  pfu/ml: 1,800,000 pfu/ml
[12]; 0.03 mg/ml
  cytotoxicity at 24 h: < 10%
[12]; 0.04 mg/ml
  cytotoxicity at 24 h: > 90%
HeLa [13]
  HeLa (Cytotoxic effect): 0
[14]
  MCC at 24 h: 10 to 50 µg/mL
[15]
  cytotoxicity at 24 h: > 90%
HeLa [16]; 0.01 mg/ml
  HeLa (toxicity): 0
HeLa [16]; 0.05 mg/ml
  HeLa (toxicity): 4+ (>90% of cells showed CTE.)
HeLa [16]; 0.1 mg/ml
  HeLa (toxicity): 4+ (>90% of cells showed CTE.)
